According to patent US20260306421A1, “SYSTEMS AND METHODS FOR TRANSDERMAN PATCH DELIVERY” (VITAMAX PATCH WHOLESALER LLC, priority 2022, published 2026):

Columns and labels:
[1] = Cholecalciferol phosphate adhesive suitability / compatibility screen; format: physicochemical
Experimental: Pre-formulation studies were performed to determine the compatibility of cholecalciferol phosphate (disodium and acid forms) with a range of adhesives (Table 38) that could be used to manufacture of the patch. The compatibility of the drugs with the patch excipients was assessed through checking the clarity of the mixture.
The compatibility of the adhesive with solvents and drug was established. The maximum drug loading in the adhesive following solvent evaporation was determined by mixing the drug, adhesive and co-solvents until a clear solution is obtained at different drug:adhesive ratios by placing a drop of solution onto patch backing sheet, leaving the slide to dry for 3-4 hours and examining the formed fil on the surface of the backings for evidence of drug crystals were assessed using KKmoon digital magnifier with LED light (China). Following patch optimization, the drug-adhesive solution was cast as 10×10 cm squares using of backing (3M™ Scotchpak™ Polyester Backing Film Laminate 9730). A sufficient volume of the adhesive was applied to achieve a target coating of 8 mg/cm^2. Following complete drying of the solvents, the adhesive layer was covered by M3 Release liner (SCOTCHPAK 9755), compressed, and then cut using 34 mm circular manual die cutter (SCP Super Cutting Press).

[2] = Release of cholecalciferol phosphate disodium solutions through synthetic membrane; format: in vitro ADME
Experimental: Preliminary studies were conducted to determine the best synthetic membrane for the patch release using the Franz diffusion cells. Regenerated cellulose (12-14 k molecular weight cut-off Medicell International UK) was compared to nylon (0.20 μm, Whatman, UK) using a range of donor and receiver solutions. The regenerated cellulose membrane was heated to 60° C. for 30 minutes after which the double layer of polymer (it is supplied as a dialysis membrane) was separated and mounted onto the Franz cell (FIG. 3) by sealing between the two compartments using parafilm, and 12 mm magnetic stirrers were placed into the receiver compartment. The receiver compartment was filled with either 50:50 PG:mobile phase (90:10 methanol:water pH 3.2), or 80:20 PG:distilled water, or 75 mM pH 7 saline. The cell sealing was confirmed by cell inversion and monitoring solvent back diffusion. […] The temperature of the Franz diffusion was maintained at 37° C. in a water bath, to set up the membrane temperature to 32° C. […] The 1 ml receiver fluid samples were collected and analysed by HPLC methods at different time intervals. […]

[3] = Franz cell porcine skin permeation and deposition of cholecalciferol and cholecalciferol phosphate disodium from PG solutions; format: in vitro ADME
Experimental: In order to assess the effect of adding phosphate to vitamin D chemical structure on the penetration of vitamin D through the skin porcine skin permeation studies were performed. Using the data from the pre-formulation studies solutions of cholecalciferol and cholecalciferol phosphate disodium, were prepared. […] The developed HPLC methods were used for quantification.
To study if the addition of the phosphate to cholecalciferol facilitated enhanced transdermal permeation, donor solutions were prepared by adding 2.5 mg/mL of cholecalciferol or cholecalciferol phosphate disodium in 100% PG. […] After 24 h, the receiver fluid was collected and analysed by HPLC methods. […]
Following homogenising solution with epidermis and dermis for 1 min by Ultra Turrax, solutions were filtered through 0.2 μm syringe filters of each bottle was collected and analysed by the HPLC method. The amount of cholecalciferol and cholecalciferol phosphate disodium on the surface of the skin, deposited in the SC, epidermis, dermis, and passed into the receiver fluid was determined. The percentage of mass recovery per cm^2 of skin was calculated, and the drug deposition profile could be obtained.

cholecalciferol phosphate disodium
compatibility with DURO-TAK 87-2516 [1]: compatible
compatibility with DURO-TAK 87-9301 [1]: did not show compatibility
miscibility with Oppanol B12 and Oppanol N100 [1]: did not show acceptable miscibility
highest active loading without any crystallization ([1]; DURO-TAK 87-2516): 0.6 mg/mL
Solubility ([1]; DURO-TAK 87-2516 93.2 μL, 10% w/v drug, 1.4 mL methanol, 2.75 mL ethyl acetate, 2 μL PG, 150 μL water): Clear
Solubility ([1]; DURO-TAK 87-2516 100 μL, 10% w/v drug, 0.5 mL methanol, 0.5-1.5 mL ethyl acetate, 2 μL PG, no water): Not clear
Solubility ([1]; DURO-TAK 87-2516 180 μL, 5% drug, 1.4 mL methanol, 2.5 mL ethyl acetate, 4 μL PG, 150 μL water): Clear
Solubility ([1]; DURO-TAK 87-2516 200 μL, 3% drug, 0.9 mL methanol, 2 mL ethyl acetate, 40 μL PG, 100 μL water): Clear
Solubility ([1]; DURO-TAK 87-9301 suitability screen, 4 mg drug, 0.2 mL adhesive, 1-4 mL ethyl acetate, 60 μL PG): Opaque
Solubility ([1]; DURO-TAK 87-9301 suitability screen, 4 mg drug, no adhesive, 4 mL methanol, 40 μL PG): Clear
release through regenerated cellulose membrane ([2]; PG donor, 50:50 PG:MP (90:10 methanol:water pH 3.2) receiver): 22.0±4.6%
release through regenerated cellulose membrane ([2]; saline donor, saline receiver): 3.0±0.7%
deposition compared with cholecalciferol in each skin layer ([3]; p<0.05, ANOVA): significantly higher
vitamin D delivered into the skin compared to cholecalciferol ([3]; propylene glycol solution): 5 times
